The values that follow are results of earlier work, collected in patent US20240226128A1, “NOVEL COMPOUNDS WITH DUAL INHIBITION ACTIVITY AGAINST SARS-COV-2 CRITICAL ENZYMES RDRP, MPRO AND HUMAN TMPRSS2” (priority 2022, published 2024).

Each structure is given as a SMILES string.

This series relates to COVID-19. The following applies: high-risk patient including different variants; cited from earlier work.

Consider `CC(C)C(=O)OC[C@H]1O[C@@H](n2ccc(NO)nc2=O)[C@H](O)[C@@H]1O` [Molnupiravir], for which the “reduced risk of COVID-19 death” value is 50%.
